Experimental data published in patent US20230233531A1, “USE OF NON-STEROIDAL ANTI-INFLAMMATORY COMPOUNDS FOR TREATMENT OF INFLAMMATION” (University of Houston System, priority 2022, published 2023).
“Also recorded” adds a separate entry of the source.

Tests used:
COX-2-10aa-mPGES-1 = target: T1, COX-2-10aa-mPGES-1 (Homo sapiens, UniProt O14684+P35354); assay: Enzymelink COX-2-10aa-mPGES-1 high through-put screening; assay type: biochemical; conditions: cross-filtered between mPGES-1, PGIS and COX-2 with AA as substrate
T1 construct: made in house
T1 sequence (P35354+O14684 with tags, fused parts or gaps): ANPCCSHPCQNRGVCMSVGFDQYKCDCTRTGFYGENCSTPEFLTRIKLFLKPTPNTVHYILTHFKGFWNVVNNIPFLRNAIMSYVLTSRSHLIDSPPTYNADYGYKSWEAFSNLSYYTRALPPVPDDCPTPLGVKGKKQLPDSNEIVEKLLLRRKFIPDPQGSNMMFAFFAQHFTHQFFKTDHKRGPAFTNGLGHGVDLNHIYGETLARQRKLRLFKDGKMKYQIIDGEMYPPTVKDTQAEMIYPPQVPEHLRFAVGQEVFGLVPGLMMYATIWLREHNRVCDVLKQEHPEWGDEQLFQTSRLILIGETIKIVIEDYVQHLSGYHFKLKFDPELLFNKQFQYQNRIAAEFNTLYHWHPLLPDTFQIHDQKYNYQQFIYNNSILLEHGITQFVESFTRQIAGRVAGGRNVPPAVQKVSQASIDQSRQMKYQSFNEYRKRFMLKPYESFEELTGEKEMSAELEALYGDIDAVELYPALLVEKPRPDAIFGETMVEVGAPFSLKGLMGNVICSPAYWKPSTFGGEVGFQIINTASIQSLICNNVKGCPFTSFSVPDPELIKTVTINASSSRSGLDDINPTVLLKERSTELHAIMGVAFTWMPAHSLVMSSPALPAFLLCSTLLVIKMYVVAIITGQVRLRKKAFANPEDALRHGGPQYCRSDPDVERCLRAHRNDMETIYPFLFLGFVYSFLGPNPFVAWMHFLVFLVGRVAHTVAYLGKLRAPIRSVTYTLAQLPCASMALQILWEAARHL
Description: There is an urgent need for new anti-inflammatory drugs with less the adverse effects in clinical practice. Developing drugs which inhibit mPGES-1 without affecting other COX downstream synthases to only decrease PGE2 level at inflammation site is an ideal therapeutic strategy to treat inflammatory diseases. By successfully establishing a system of single-chain Enzymelinks of the upstream COX-2 and the downstream mPGES-1 thread by a 10 amino acid (AA) bio-linker (COX-2-10aa-mPGES-1 [9,11]), one can mimic endogenous inflammatory PGE2 biosynthesis without affecting COX-2 coupling to other enzyme synthases, for example, PGIS. This kind of Enzymelink has a kinetic advantage for converting the initial substrate, AA, to pro-inflammatory PGE2 via a triple catalytic reaction due to the shorter distance between the catalytic domain of the two enzymes within a single polypeptide chain. By this method, it was possible to reduce the interference with the mPGES-1 inhibitor screen, such as the nonspecific inhibition and cross-inhibition of PGIS, by avoiding the use of the unstable intermediate PGH2 as the initial substrate for PGE2 biosynthesis. At the same time, another Enzymelink, COX-2-10aa-PGIS was established in order to verify that the screen compound will not affect PGI2 synthesis. […]

[1] = tested on: carrageenan-induced paw inflammation; assay: Carrageenan-induced paw inflammation/edema in BABL-c mice; assay type: in vivo; conditions: for inflammatory edema (paw volume quantitation): 50 mg/kg intramuscular 10 min before carrageenan, vs saline control; for inflammatory edema (paw volume quantitation) / time course of paw volume: 50 mg/kg; for paw thickness: 50 mg/kg intramuscular, vs control group; for time course of paw volume: 0-6 h after carrageenan
Procedure: (§1) Animals. The adult CD-1 mice (18-20 g) and BABL-c (18-20 g) were purchase from Envigo Plus vendor (USA) and used in this study. The mice were hosted under standard condition (23±2° C.; 12 h/12 h light/dark cycle; 50% humidity). The protocol was approved by Institutional Animal Care and Use Committee (IACUC). And all procedures were conducted according to IACUC. After all the experiments, the animals were euthanized with CO2 under the procedure of IACUC. Injections of compounds. The synthesized compounds to be tested were injected 10 mins before carrageenan injection. All the compounds were freshly prepared. All the compounds were dissolved in PBS and totally dissolved after ultrasonic. The compounds were injected with 26-G sterile needle via intramuscular injection. After immobilizing the mice, the hind limb was immobilized with the little finger and the then, the injection site was disinfected with 70% alcohol, and the needle was inserted into the root of the hindlimb at an angle of 45 degrees. The needle plug was withdrawn to make sure there was no injection into the blood vessel. If there was no blood return, the compounds were injected slowly. The mice were place back to their cages for 10 mins before the next step. Procedures for establishing of paw inflammation. The procedure of establishing inflammation mice model and the procedure of measurement of paw edema were describe as follow: 1% lambda-carrageenan was freshly prepared before injection. Carrageenan powder was first dissolved in cold PBS and vortexed for 5 times. Then the mixture was placed in 50° C. water for 5 mins until all the milky white matrix dissolved completely. […]*3⁄8 (0.45 mm*10 mm) sterile needle was used for injection. Carrageenan was subcutaneous injected slowly into the middle of the mice left hind paw. The time of injection Carrageenan was count as the start time point (0 h) and the paw swelling size was recorded as paw thickness and paw edema volume. Establishing of Carrageenan-induced Inflammatory Paw Edema Mice Model. […] The carrageenan-induced paw edema inflammation is a well-defined model of acute inflammation. It is widely and commonly used for evaluating the effectiveness of inhibitors of prostaglandin synthesis. Carrageenan is a complex of polysaccharides that functions in stimulating the expressions of COX-2 and mPGES-1 to release the proinflammatory mediator, PGE2, and its downstream factors, such as bradykinin, histamine, tachykinins, reactive oxygen, and nitrogen species. In this study, to induce acute inflammation, a single dose of 25 μl of 1% solution of λ-carrageenan was injected subcutaneously into the pad area of the hairless skin on the underside of the left hind paw (FIG. 1A). The injection was performed using a 26-gauge needle targeting the center of the plantar region. The administration of leading compounds and the positive control group, Celebrex, and the negative control saline occurred 10 minutes prior to the λ-carrageenan […] injection. To obtain the anti-inflammatory data, the animal condition was monitored hourly and paw-edema volume and thickness were measured hourly from 0 h to 6 h and again at 24 h, the injection of λ-carrageenan was counted as 0 h (FIG. 1B). After 24 h, local blood was collected from the hind paw of the mice for the next step assay to determine the PGE2 and PGI2 levels. Tissue samples, including the stomach and kidney, were collected after euthanization. The BABL-c mice were arranged into three groups: A. Control (Ctl) group: 50 μl saline; B. 2Me group: 50 mg/kg, 50 ul; C. 3-F group: 50 mg/kg, 50 ul. the CD-1 mice were arranged into 6 groups: A. Control (Ctl) group: saline 50 ul; B. 2-Me group: 50 mg/kg, 50 ul; C. 3-F group: 50 mg/kg, 50 ul; D: 2-Me group: 10 mg/kg, 50 ul; E. 3-F group: 10 mg/kg, 50 ul; F. Celebrex group: 50 mg/kg, 50 ul. Establishing measurements of the carrageenan-induced acute inflammation/edema. […]

[2] = tested on: carrageenan-induced paw inflammation; assay: Carrageenan-induced paw inflammation/edema in CD-1 mice; assay type: in vivo; conditions: for dose-dependent anti-inflammatory activity, paw thickness: 10 mg/kg vs 50 mg/kg; for dose-dependent anti-inflammatory activity, paw edema volume: 10 mg/kg vs 50 mg/kg, 2, 4 and 6 h; for paw thickness increase / paw volume increase: 50 mg/kg intramuscular, vs control group; for paw volume increase: 50 mg/kg
Procedure: as §1

Compound | selectivity for mPGES-1 (COX-2-10aa-mPGES-1) | inflammatory edema (paw volume quantitation) [1] | paw thickness [1] | time course of paw volume [1] | dose-dependent anti-inflammatory activity, paw thickness [2] | dose-dependent anti-inflammatory activity, paw edema volume [2] | paw thickness increase [2] | paw volume increase [2]
Nc1ccc2oc(-c3ccc(C(F)(F)F)cc3)nc2c1 [3-F] | highly selective for mPGES-1 | significantly decreased the inflammatory edema; also recorded: significant effects on reducing the paw edema | significant anti-inflammatory potency | increased during the first 2 hours but decreased within the next 4 hours | improve the anti-inflammatory effects | increasing potent anti-inflammatory effect corresponding with the dosage increase | significantly decrease | significantly decrease; also recorded: significant effects on reducing the paw edema
CC(C)c1ccc(-c2nc3cc(N)ccc3o2)cc1 [2-Me] | highly selective for mPGES-1 | significantly decreased the inflammatory edema; also recorded: significant effects on reducing the paw edema | significant anti-inflammatory potency | increased slightly in the first 4 hours and decreases in the following 2 hours | improve the anti-inflammatory effects | improved its anti-inflammation activity | significantly decrease | significantly decrease; also recorded: significant effects on reducing the paw edema
